A word on the IC50: it is the midpoint of a concentration-inhibition curve.

The source made the active and inactive calls. The rule behind the calls is not given here.

For one test, the system named is Bacillus subtilis. Briefly: Antimicrobial activity against Bacillus subtilis at 20 microg/disk by disc diffusion assay. Format: functional, organism-based. Conditions: dose 20.0 µg/disk.
In another test the test system is Pythium aphanidermatum. In words: Antimicrobial activity against Pythium aphanidermatum at 50 microg/disk by disc diffusion assay. Format: functional, organism-based. Particulars: dose 50.0 µg/disk.
A further test relates to A549. In words: Cytotoxicity against human A549 cells assessed as reduction in cell viability by MTT assay. Format: functional, cell-based. (Tetrazolium dyes change colour on reduction, which living cells bring about.)
Another test has as its system Staphylococcus aureus. Briefly: Antimicrobial activity against Staphylococcus aureus ATCC 25923 at 20 microg/disk by disc diffusion assay. Type of test: functional, organism-based. Conditions: dose 20.0 µg/disk. Background: Agar diffusion results depend on both activity and mobility in agar.
The subject of another test is MIA PaCa-2. Briefly: Cytotoxicity against human MIA PaCa-2 cells assessed as reduction in cell viability by MTT assay. Type of test: functional, cell-based.
A further test relates to Xanthomonas oryzae. Briefly: Antimicrobial activity against Xanthomonas oryzae pv. oryzicola RS105 at 20 microg/disk by disc diffusion assay. Type of test: functional. Conditions: dose 20.0 µg/disk.
A further test has as its system Streptomyces sp. Briefly: Antimicrobial activity against Streptomyces sp. S001 at 20 microg/disk by disc diffusion assay. Format: functional, organism-based. Particulars: dose 20.0 µg/disk.
The subject of a further test is Salmonella typhimurium. Briefly: Antimicrobial activity against Salmonella enterica serovar Typhimurium UK-1 x8956 at 20 microg/disk by disc diffusion assay. Particulars: Salmonella enterica subsp. enterica serovar Typhimurium, dose 20.0 µg/disk. Format: functional, organism-based.
Another test concerns Fusarium graminearum. In words: Antimicrobial activity against Fusarium graminearum at 50 microg/disk by disc diffusion assay. Type of test: functional, organism-based. Conditions: dose 50.0 µg/disk.

Take `CC(=O)[C@H]1[C@@H]2C=C[C@@H]3[C@H]4C/C=C\C(=O)NCCC[C@@H]5NC(=O)C(=C5O)C(=O)/C=C/[C@@H]4C[C@@H]3[C@H]2C[C@H]1C`: the outcome in the test on Bacillus subtilis, with Pythium aphanidermatum, in the test on Staphylococcus aureus, with Xanthomonas oryzae, with Streptomyces sp. and in the test with Salmonella typhimurium was inactive. In the test with Fusarium graminearum, the outcome was inactive. Also, the figures for the IC50 with A549 and in the test with MIA PaCa-2 were 1.4 µM and 2.4 µM, respectively.

For `COc1cccc2c1C(=O)c1c(O)c3c(c(O)c1C2=O)C[C@@](O)(C(=O)CO)C[C@@H]3O[C@H]1C[C@H](N)[C@H](O)[C@H](C)O1` [DOXORUBICIN], the IC50 in the test on MIA PaCa-2 was 0.43 µM.

In the case of `C[C@@H]1C[C@H]2[C@@H](C=C[C@@H]3[C@H]4C/C=C\C(=O)NCC[C@H](O)[C@@H]5NC(=O)C(=C5O)C(=O)/C=C/[C@@H]4C[C@@H]32)[C@@H]1C(=O)CO`, the outcome with Bacillus subtilis, in the test with Pythium aphanidermatum, in the test on Staphylococcus aureus, with Xanthomonas oryzae, in the test with Streptomyces sp. and in the test on Salmonella typhimurium was inactive. The result in the test with Fusarium graminearum was inactive.

Turning to `CC[C@H]1[C@@H]2C=C[C@H](/C=C/C=C/C(N)=O)[C@H](/C=C/C=C/C(=O)C3=C(O)[C@H](CCC(=O)O)NC3=O)[C@H]2C[C@H]1C`, the outcome with Bacillus subtilis, in the test on Pythium aphanidermatum, with Staphylococcus aureus, in the test with Xanthomonas oryzae, with Streptomyces sp. and in the test on Salmonella typhimurium was inactive. Besides, the outcome in the test on Fusarium graminearum was inactive.

As to `CC(=O)[C@H]1[C@@H]2C=C[C@@H]3/C=C/C=C/C(=O)NCC[C@H](O)[C@@H]4NC(=O)C(=C4O)C(=O)/C=C/C=C/[C@@H]3[C@H]2C[C@H]1C`, the outcome with Bacillus subtilis, with Pythium aphanidermatum, in the test on Staphylococcus aureus, with Xanthomonas oryzae, in the test on Streptomyces sp. and with Salmonella typhimurium was inactive. The result in the test on Fusarium graminearum was inactive.

For the molecule `CC(=O)[C@H]1[C@@H]2C=C[C@@H]3/C=C/C=C/C(=O)NCCC[C@@H]4NC(=O)C(=C4O)C(=O)/C=C/C=C/[C@@H]3[C@H]2C[C@H]1C`, the result in the test with Bacillus subtilis, in the test on Pythium aphanidermatum, in the test with Staphylococcus aureus, in the test on Xanthomonas oryzae, in the test with Streptomyces sp. and with Salmonella typhimurium was inactive. The result with Fusarium graminearum was inactive.

As for `CC(=O)[C@H]1[C@@H]2C=C[C@@H]3[C@H]4C/C=C\C(=O)NCC[C@H](O)[C@@H]5NC(=O)C(=C5O)C(=O)/C=C/[C@@H]4C[C@@H]3[C@H]2C[C@H]1C`, the outcome with Bacillus subtilis, in the test with Pythium aphanidermatum, with Staphylococcus aureus, in the test on Xanthomonas oryzae, with Streptomyces sp. and in the test with Salmonella typhimurium was inactive. Besides, the result in the test with Fusarium graminearum was inactive. The IC50 with A549 is 0.53 µM; in the test with MIA PaCa-2, 1 µM.

For the molecule `CC(O)[C@H]1[C@@H]2C=C[C@@H]3/C=C/C=C/C(=O)NCC[C@H](O)[C@@H]4NC(=O)C(=C4O)C(=O)/C=C/C=C/[C@@H]3[C@H]2C[C@H]1C` (some centres undefined), the result in the test with Bacillus subtilis, with Pythium aphanidermatum, with Staphylococcus aureus, with Xanthomonas oryzae, in the test on Streptomyces sp. and in the test on Salmonella typhimurium was inactive. Also, in the test with Fusarium graminearum, the outcome was inactive.

Turning to `CC(=O)[C@H]1[C@@H]2C=C[C@@H]3[C@@H](C/C=C\C(N)=O)[C@H](/C=C/C(=O)C4=C(O)[C@H](CCC(=O)O)NC4=O)C[C@@H]3[C@H]2C[C@H]1C`, the result in the test with Bacillus subtilis, in the test with Pythium aphanidermatum, in the test with Staphylococcus aureus, with Xanthomonas oryzae, with Streptomyces sp. and in the test on Salmonella typhimurium was inactive. Also, in the test with Fusarium graminearum, the result was inactive.

For `CC(=O)[C@H]1[C@@H]2C=C[C@H](/C=C/C=C/C(N)=O)[C@H](/C=C/C=C/C(=O)C3=C(O)[C@H](CCC(=O)O)NC3=O)[C@H]2C[C@H]1C`, the outcome in the test with Bacillus subtilis, with Pythium aphanidermatum, in the test with Staphylococcus aureus, with Xanthomonas oryzae, in the test on Streptomyces sp. and with Salmonella typhimurium was inactive. The result in the test on Fusarium graminearum was inactive. Besides, the IC50 in the test with MIA PaCa-2 turned out to be 9.6 µM.

These data come from ChEMBL document CHEMBL4665805, “Expression of the Clifednamide Biosynthetic Pathway in Streptomyces Generates 27,28-seco-Derivatives” (J Nat Prod, 2020).
